Where no end group is shown, it is not given here. [ ]: non-standard residue; d: D form. Aib = CC(C)(N)C(=O)O
Assays:
Type in all cases: in vivo
APP/PS1 mice = assay: Immunostaining for phosphorylated tau protein in the hippocampus; details: APP/PS1 mice vs APP/PS1-saline; FIG. 10; N=4 per group
Source text: Materials and methods in Example 2 are the same as Example 1 except when stated. Reagents used in Example 2 only include antibodies to p-PI3Kp85, PI3Kp85, p-Akt (ser473), Akt, p-GSK3β ([…]), and GSK3β from Abcam, Inc. Cambridge, UK. The antibody to p-tau (AT8) from Thermo Scientific USA. Mouse Anti-β-actin, Anti-Rabbit IgG, Anti-mouse IgG, CY3-Anti-mouse IgG, RIPA Lysate, BCA Protein Assay Kit, DAPI staining solution and Anti-fluorescence decay agent from Boster (Wuhan, China). After in vivo hippocampal L-LTP recording, the mice were anesthetized with chloral hydrate (0.007 ml/g) by intraperitoneal injection and then the brain tissue was fixed with paraformaldehyde for 24 hours, after that the tissue was transferred to 30% sucrose solution for dehydration. The brain tissue was harvested, frozen in -80° C., and then sliced at a thickness of 30 μm, put the frozen section in PBS, blocked with normal goat serum (Solarbio, Beijing, China), followed by adding the primary antibody, second antibody and DAPI. Phosphorylated tau protein was observed by confocal laser scanning microscopy.

APP/PS1 transgenic mice = assay: Immunohistochemical measurement of synaptic densities (synaptophysin) in the cortex of APP/PS1 transgenic mice; details: 10 nmol/kg i.p. once daily for 8 weeks, FIG. 2, N=6 per group
Source text: Animal models have been developed to test novel drugs. A standard model for Alzheimer's disease is transgenic mice that express human mutated genes for amyloid production that are known to induce Alzheimer's disease in humans. These APP/PS1 transgenic mice recapitulate some of the symptoms of Alzheimer's disease such as the aggregation of amyloid in the brain, memory loss and the loss of synapses (Radde et al., 2006).
The APP/PS1 mice express human Swedish mutated APP and human mutated presenilin-1 which induce Alzheimer's Disease in humans.
The dose of peptide tested was 10 nmol/kg body weight. The peptides were administered by a once-daily intraperitoneal injection for 8 weeks. Saline injections were administered as a control. Six animals per group were injected with a peptide or a saline control.
Animals (6 per group) were perfused transcardially with 30 ml of ice-cold PBS and 30 ml of ice-cold 4% paraformaldehyde to postfix the brain. The brains were removed and placed in fresh 30% sucrose solution in PBS to cryoprotect tissue and cut at a thickness of 40 μm on a cryostat. Sections were chosen according to stereological rules, with the first section taken at random and every 5th section afterwards. Between 7 and 13 sections were analysed per brain. […]

[1] = test system: PI3K/AKT/GSK3β signalling pathway; assay: Western blotting for hippocampal levels of PI3K/AKT/GSK3β; details: APP/PS1 mice; FIG. 11; N=6 per group
Source text: Materials and methods in Example 2 are the same as Example 1 except when stated. Reagents used in Example 2 only include antibodies to p-PI3Kp85, PI3Kp85, p-Akt (ser473), Akt, p-GSK3β ([…]), and GSK3β from Abcam, Inc. Cambridge, UK. The antibody to p-tau (AT8) from Thermo Scientific USA. Mouse Anti-β-actin, Anti-Rabbit IgG, Anti-mouse IgG, CY3-Anti-mouse IgG, RIPA Lysate, BCA Protein Assay Kit, DAPI staining solution and Anti-fluorescence decay agent from Boster (Wuhan, China). The hippocampi of mouse were dissected and homogenized in tissue protein extraction reagent, and protein concentration was measured using BCA Protein Assay Kit. A total of 50 μg of protein was used from each sample. Sample proteins were separated on 12% SDS-polyacrylamide gels. After that, the proteins were transferred onto PVDF membranes and nonspecific binding was blocked with 5% BSA. A primary antibody was used to incubate the membranes overnight at 4° C., followed by a secondary antibody for 2 h. The optical density of the target strip (p-PI3K, t-PI3K, p-AKT, t-AKT, p-GSK3β and t-GSK3β) was analyzed by using a gel image processing system. Data were analysed using a one-way ANOVA with post-hoc Bonferroni tests. The results are illustrated in FIGS. 5 to 11.

## YXEGTFTSDYSIYLDKQAAXEFVNWLLAGGPSSGAPPPSKRRQRRKKRGY-NH2 (Y[Aib]EGTFTSDYSIYLDKQAA[Aib]EFVNWLLAGGPSSGAPPPSKRRQRRKKRGY-NH2) [DA5, No. 12; X=aminoisobutyric acid]
APP/PS1 mice
  neurofibrillary tangles (immunofluorescence staining of p-tau protein): reduces neurofibrillary tangles
APP/PS1 transgenic mice
  synapse loss / synaptic densities in the cortex: protected from synapse loss
[1]
  activation of GSK3β / PI3K/AKT signalling (western blot, hippocampus): prevents excessive activation of GSKβ by upregulating P13/AKT signalling
